Measurements from patent US8343988B2, “Inhibitors of histone deacetylase” (Janssen Pharmaceutica, N.V, priority 2002, dated 2013).
Converted amounts (≈) assume the structure as drawn. Like-named read-outs stand apart in the source and are kept apart here.

How the values were obtained:
[1] = molecular target: histone deacetylase (HeLa nuclear extracts); assay: In vitro assay for inhibition of histone deacetylase; type: biochemical; settings: [3H]acetylated histone H4 peptide substrate, 30 min
Protocol: The in vitro assay for inhibition of histone deacetylase (see example C.1) measures the inhibition of HDAC enzymatic activity obtained with the compounds of formula (I).
HeLa nuclear extracts (supplier: Biomol) were incubated at 60 μg/ml with 2×10^−8 M of radiolabeled peptide substrate. As a substrate for measuring HDAC activity a synthetic peptide, i.e. the amino acids 14-21 of histone H4, was used. The substrate is biotinylated at the NH2-terminal part with a 6-aminohexanoic acid spacer, and is protected at the COOH-terminal part by an amide group and specifically [^3H]acetylated at lysine 16. The substrate, biotin-(6-aminohexanoic)Gly-Ala-([^3H]-acetyl-Lys-Arg-His-Arg-Lys-Val-NH2), was added in a buffer containing 25 mM Hepes, 1 M sucrose, 0.1 mg/ml BSA and 0.01% Triton X-100 at pH 7.4. After 30 min the deacetylation reaction was terminated by the addition of HCl and acetic acid. (final concentration 0.035 mM and 3.8 mM respectively). After stopping the reaction, the free ^3H-acetate was extracted with ethylacetate. After mixing and centrifugation, the radioactivity in an aliquot of the upper (organic) phase was counted in a β-counter.
For each experiment, controls (containing HeLa nuclear extract and DMSO without compound), a blank incubation (containing DMSO but no HeLa nuclear extract or compound) and samples (containing compound dissolved in DMSO and HeLa nuclear extract) were run in parallel. […] The control sample represented 100% of substrate deactylation. For each sample the radioactivity was expressed as a percentage of the mean value of the controls. […] Herein the effects of test compounds are expressed as pIC50 (the negative log value of the IC50-value).

[2] = Kinetic solubility in aqueous media; type: physicochemical; settings: aqueous buffer, kinetic from dmso stock; phosphate citrate buffer pH 7.4, turbidity by nephelometer; read-out: Solubility Score
Protocol: Kinetic solubility in aqueous media measures the ability of a compound to stay in aqueous solution upon dilution (see example C.3).
DMSO-stock solutions are diluted with a single aqueous buffer solvent in 3 consecutive steps. For every dilution turbidity is measured with a nephelometer.
In the first dilution step, 10 μl of a concentrated stock-solution of the active compound, solubilized in DMSO (5 mM), was added to 100 μl phosphate citrate buffer pH 7.4 and mixed. In the second dilution step, an aliquot (20 μl) of the first dilution step was further dispensed in 100 μl phosphate citrate buffer pH 7.4 and mixed. Finally, in the third dilution step, a sample (20 μl) of the second dilution step was further diluted in 100 μl phosphate citrate buffer pH 7.4 and mixed. All dilutions were performed in 96-well plates. Immediately after the last dilution step the turbidity of the three consecutive dilution steps were measured with a nephelometer. Dilution was done in triplicate for each compound to exclude occasional errors. Based on the turbidity measurements a ranking is performed into 3 classes. Compounds with high solubility obtained a score of 3 and for this compounds the first dilution is clear. Compounds with medium solubility obtained a score of 2. For these compounds the first dilution is unclear and the second dilution is clear. […] The solubility of 6 compounds was measured.

[3] = test system: A2780 ovarian carcinoma cells; assay: Antiproliferative activity on A2780 cells (MTT); type: cell-based; settings: Homo sapiens, 96 h, four days of incubation, read-out: Cellular activity pIC50 (converted)
Protocol: Cellular activity of the compounds of formula (I) was determined on A2780 tumour cells using a […] assay for cell toxicity or survival (Mosmann Tim, Journal of Immunological Methods 65: 55-63, 1983)(see example C.2).
All compounds tested were dissolved in DMSO and further dilutions were made in culture medium. Final DMSO concentrations never exceeded 0.1% (v/v) in cell proliferation assays. Controls contained A2780 cells and DMSO without compound and blanks contained DMSO but no cells. MTT was dissolved at 5 mg/ml in PBS. A glycine buffer comprised of 0.1 M glycine and 0.1 M NaCl buffered to pH 10.5 with NaOH (1 N) was prepared (all reagents were from Merck).
The human A2780 ovarian carcinoma cells (a kind gift from Dr. T. C. Hamilton [Fox Chase Cancer Centre, Pennsylvania, USA]) were cultured in RPMI 1640 medium supplemented with 2 mM L-glutamine, 50 μg/ml gentamicin and 10% fetal calf serum. Cells were routinely kept as monolayer cultures at 37° C. in a humidified 5% CO2 atmosphere. Cells were passaged once a week using a trypsin/EDTA solution at a split ratio of 1:40. All media and supplements were obtained from Life Technologies. Cells were free of mycoplasma contamination as determined using the Gen-Probe Mycoplasma Tissue Culture kit (supplier: BioMérieux).
Cells were seeded in NUNC™ 96-well culture plates (Supplier: Life Technologies) and allowed to adhere to the plastic overnight. Densities used for plating were 1500 cells per well in a total volume of 200 μl medium. After cell adhesion to the plates, medium was changed and drugs and/or solvents were added to a final volume of 200 μl. Following four days of incubation, medium was replaced by 200 μl fresh medium and cell density and viability was assessed using an MTT-based assay. To each well, 25 μl MTT solution was added and the cells were further incubated for 2 hours at 37° C. The medium was then carefully aspirated and the blue MTT-formazan product was solubilized by addition of 25 μl glycine buffer followed by 100 μl of DMSO. […] Within an experiment, the results for each experimental condition are the mean of 3 replicate wells. For initial screening purposes, compounds were tested at a single fixed concentration of 10^−6 M. For active compounds, the experiments were repeated to establish full concentration-response curves. For each experiment, controls (containing no drug) and a blank incubation (containing no cells or drugs) were run in parallel. The blank value was subtracted from all control and sample values. For each sample, the mean value for cell growth (in absorbance units) was expressed as a percentage of the mean value for cell growth of the control. […] Herein the effects of test compounds are expressed as pIC50 (the negative log value of the IC50-value).

[4] = not given; remark: listed apart in the source

Enzyme activity pIC50 [1] | IC50 [3] [µM] | Compound | further results
>5 |  | O=C(NO)c1ccc(N2CCN(c3cccc(C(F)(F)F)c3)CC2)c([N+](=O)[O-])c1 [compound 19] | 
<5 |  | O=C(NO)c1ccc(N2CCN(c3ccc(Cl)cc3)CC2)c([N+](=O)[O-])c1 [compound 20] | 
<5 |  | O=C(NO)c1cccc(CN2CCN(c3cccc4ccccc34)CC2)c1 [compound 49] | solubility [2]: 75.8 to 454 µM (≈ 27.4 to 164 µg/mL)
5.121 | 15 | CCC(C)n1nc(C)n(-c2ccc(N3CCCN(c4ccc(C(=O)NO)cc4)CC3)cc2)c1=O (stereo not drawn) [Co. No. 1] | solubility [2]: > 454 µM
>5 |  | O=C(NO)c1ccc(N2CCN(Cc3ccc4c(c3)OCO4)CC2)c([N+](=O)[O-])c1 [compound 22] | 
7.427 | 0.658 | O=C(NO)c1cnc(N2CCC(Cn3c(-c4ccccc4)nc4ccccc4c3=O)CC2)nc1 [Co. No. 10] | 
 |  | CCC(C)n1nc(C)n(-c2ccc(N3CCCN(c4ccc(C(=O)NO)cc4)CC3)cc2)c1=O (stereo not drawn) (hydrate or solvate) [Co. No. 1] | melting point: 182 to 184 °C
7.306 | 0.658 | O=C(NO)c1cnc(N2CCC(N3CCN(S(=O)(=O)c4ccc5ccccc5c4)CC3)CC2)nc1 [Co. No. 4] | solubility [2]: > 454 µM; melting point: 230 °C
>5 |  | O=C(NO)c1ccc(N2CCN(CCCC(c3ccc(F)cc3)c3ccc(F)cc3)CC2)c([N+](=O)[O-])c1 [compound 12] | 
<5 |  | O=C(NO)c1ccc(N2CCN(c3cccc(Cl)c3)CC2)c([N+](=O)[O-])c1 [compound 11] | 
7.235 | 1.17 | Cc1ccc2nc(-c3cc4ccccc4o3)n(CC3CCN(c4ncc(C(=O)NO)cn4)CC3)c(=O)c2c1 [compound 52] | 
8.148 | 0.0593 | O=C(NO)c1cnc(N2CCN(Cc3ccc4ccccc4c3)CC2)nc1 [Co. No. 6] | solubility [2]: > 454 µM; melting point: > 260 °C
7.28 | 0.964 | O=C(NO)c1cnc(N2CCN(C3CCN(S(=O)(=O)c4ccc5ccccc5c4)CC3)CC2)nc1 [Co. No. 3] | solubility [2]: < 75.8 µM; melting point: 210 °C
5.698 |  | O=C(NO)c1ccc(N2CCN(C3CCCCC3)CC2)c([N+](=O)[O-])c1 [compound 16] | 
<5 |  | O=C(NO)c1ccc(N2CCN(Cc3ccccc3)CC2)c([N+](=O)[O-])c1 [compound 24] | 
6.377 | 9.12 | O=C(NO)c1ccc(N2CCN(Cc3ccccc3)CC2)cc1 [Co. No. 2] | solubility [2]: > 454 µM; melting point: 196 °C
8.035 | 0.153 | O=C(NO)c1cnc(N2CCN(Cc3ccc(-c4ccc(CO)cc4)o3)CC2)nc1 [Co. No. 5] | solubility [2]: > 454 µM; melting point: 219 °C
7.295 |  | O=C(NO)c1cnc(N2CCC(Cn3c(-c4cccnc4Oc4ccccc4)nc4cccc(F)c4c3=O)CC2)nc1 [compound 53] | 
 |  | CCCO [propanol] | % metabolism ([4]; 15 min incubation with active microsomes, compound 5 μM): 25%

Enzyme activity pIC50 [1] | IC50 [3] [µM] | Compound | further results
>5 |  | O=C(NO)c1ccc(N2CCC(n3c(=O)[nH]c4ccccc43)CC2)c([N+](=O)[O-])c1 [compound 28] | 
<5 |  | O=C(NO)c1ccc(N2CCC(Cc3ccccc3)CC2)c([N+](=O)[O-])c1 [compound 27] | 
>5 |  | COc1ccccc1N1CCN(c2ccc(C(=O)NO)cc2[N+](=O)[O-])CC1 [compound 15] | 
5 |  | O=C(NO)c1ccc(N2CCN(c3ccc(C(F)(F)F)cn3)CC2)c([N+](=O)[O-])c1 [compound 25] | 
<5 |  | O=C(NO)c1cc([N+](=O)[O-])ccc1N1CCC(Cc2ccccc2)CC1 [compound 14] | 
7.561 | 1.18 | Cc1nc2ccccc2c(=O)n1CC1CCN(c2ncc(C(=O)NO)cn2)CC1 [compound 51] | 
5 |  | O=C(NO)c1ccc(N2CCN(c3ncccn3)CC2)c([N+](=O)[O-])c1 [compound 21] | 
 |  | O=C(NO)c1cnc(N2CCN(Cc3ccc(-c4ccc(CN5CCOCC5)cc4)o3)CC2)nc1 (hydrate or solvate) [Co. No. 9] | melting point: 140 °C
5.206 |  | O=C(NO)c1ccc(CN2CCN(c3cccc4ccccc34)CC2)cc1 [compound 50] | solubility [2]: 75.8 to 454 µM (≈ 27.4 to 164 µg/mL)
7.889 | 0.0979 | O=C(NO)c1cnc(N2CCN(Cc3ccc(-c4ccc(CN5CCOCC5)cc4)o3)CC2)nc1 [Co. No. 9] | solubility [2]: > 454 µM
6.176 |  | O=C(NO)c1cnc(N2CCC(Cn3c(C(c4ccccc4)C4CCCC4)nc4cccc(F)c4c3=O)CC2)nc1 (stereo not drawn) [compound 54] | 
>5 |  | O=C(NO)c1ccc(N2CCN(c3ccccn3)CC2)c([N+](=O)[O-])c1 [compound 18] | 
7.365 | 0.372 | COc1cc2c(=O)n(CC3CCN(c4ncc(C(=O)NO)cn4)CC3)c(C)nc2c(OC)c1OC [Co. No. 8] | 
>5 |  | O=C(NO)c1ccc(N2CCN(c3ccc(C(F)(F)F)cc3)CC2)c([N+](=O)[O-])c1 [compound 26] | 
>5 |  | O=C(NO)c1ccc(N2CCN(c3ccc(Cl)c(Cl)c3)CC2)c([N+](=O)[O-])c1 [compound 17] | 
 |  | COc1cc(N)c(Cl)cc1C(=O)NC1CCN(CCCOc2ccc(F)cc2)CC1OC (stereo not drawn) [Cisapride] | % metabolism ([4]; human, 15 min, 5 μM): 45%
<5 |  | O=C(NO)c1cc([N+](=O)[O-])ccc1N1CCN(c2ccccc2Cl)CC1 [compound 13] | 
7.952 | 0.444 | O=C(NO)c1cnc(N2CCN(CCc3ccc4ccccc4c3)CC2)nc1 [Co. No. 7] | solubility [2]: > 454 µM; melting point: 209 °C
>5 |  | O=C(NO)c1ccc(N2CCN(c3ccccc3F)CC2)c([N+](=O)[O-])c1 [compound 23] | 
